Literature values, collected in patent US12279614B2, “Photo-polymerizable, universal antimicrobial coating to produce high-performing, multi-functional face masks” (The Governors of the University of Alberta, priority 2022, dated 2025).

Test system: Human Adenovirus Type 8
Details: incubation time 1 hr

Benzalkonium chloride
Inactivation efficiency: 1.01 log reduction
